Test results as given in US10538674B2, “Method of forming anti-rust or anti-bacterial film containing tannic acid derivatives” (NATIONAL INSTITUTE FOR MATERIALS SCIENCE, priority 2014, dated 2020).

Columns and labels:
[1] = system: colon bacilli (E. Coli); experiment: Pasteurization/Sterilization Testing 1: E. Coli scattered on film on glass substrate; assay type: cell-based; conditions: drop-cast film on glass substrate, room temperature, 24 hours after scattering, 0 hour count 1.2×10^5
Procedure: Using TA (Comparative Example 1), TA(C6)10 (Example 6), TA(C10)10 (Example 2), and TA(C16)10 (Example 8), respectively, a film was formed by drop-casting on a 5 cm×5 cm glass substrate. Preparing a THF solution, drop-casting of the THF solution in an amount of 1.1 mg/cm^2 was followed by annealing under the conditions of 1 hour and 80° C. to prepare a drop-cast film. The TA (Comparative Example 1), TA(C6)10 (Example 6), TA(C10)10 (Example 2), and TA(C16)10 (Example 8) film was formed on the glass substrate by the aforesaid method, and colon bacilli (E. Coli) were scattered on it to observe changes in the surface of the film at room temperature. FIG. 18 is a graph representative of the results of proliferation of bacteria on the film. The cell count of colon bacilli scattered at the start (0 hour) was 1.2×10^5 CFU/mL. After the lapse of 24 hours, that cell count increased to 1.4×10^7 CFU/mL for the TA coated (control) film. […] A problem with tannic acid—known so far to be capable of pasteurization in the form of an aqueous solution—was that a tannic acid film is wrinkled up, running short of durability. […] It is here to be noted that the unit CFU/mL is an abbreviation of a colony forming unit indicative of a quantitative unit used in the inspection of bacteria in foods or a unit of the quantity of bacteria. […]

[2] = system: golden staphs (S. Aureus); experiment: Pasteurization/Sterilization Testing 1: S. Aureus scattered on film on glass substrate; assay type: cell-based; conditions: drop-cast film on glass substrate, 24 hours after scattering; 0 hour count 1.1 × 10^5
[3] = Solubility upon addition to water and chloroform; assay type: physicochemical
Source text: Tannic acid powders (WAKO, 203-06331) were kept at the ready. FIG. 2(a) is a photograph taken of the external view of tannic acid powders, FIG. 2(b) is a photograph of the external view of tannic acid powders upon added to water, and FIG. 2(c) is a photograph of the external view of tannic acid powders upon added to chloroform. As shown in FIG. 2(a), the tannic acid powders were ocher powders. […] This tannic acid material was used for Comparative Example 1. FIG. 4(a) is a photograph taken of the external view of the derivative, and FIGS. 4(b) and 4(c) are photographs taken of the external views of the derivative upon added to water and chloroform, respectively.

[4] = system: methicillin-resistant Staphylococcus Aureus (MRSA); experiment: Pasteurization/Sterilization Testing 1: MRSA scattered on film on glass substrate; assay type: cell-based; conditions: drop-cast film on glass substrate, 24 hours after scattering; 0 hour count 1.2 × 10^5

Solubility in chloroform ([3]; upon added to chloroform (CHCl3)): not in chloroform
Solubility in water ([3]; upon added to water): dissolved in water
Compound: O=C(OC[C@H]1O[C@@H](OC(=O)c2cc(O)c(O)c(OC(=O)c3cc(O)c(O)c(O)c3)c2)[C@H](OC(=O)c2cc(O)c(O)c(OC(=O)c3cc(O)c(O)c(O)c3)c2)[C@@H](OC(=O)c2cc(O)c(O)c(OC(=O)c3cc(O)c(O)c(O)c3)c2)[C@@H]1OC(=O)c1cc(O)c(O)c(OC(=O)c2cc(O)c(O)c(O)c2)c1)c1cc(O)c(O)c(OC(=O)c2cc(O)c(O)c(O)c2)c1 [TA, tannic acid]
Cell count of E. Coli, 24 hours ([1]; listed as Control): 1.4 × 10^7 CFU/mL
Cell count of E. Coli, 24 hours ([1]; listed as TA coated (control)): 1.4×10^7 CFU/mL
Cell count of S. Aureus, 24 hours [2]: 1.1 × 10^5 CFU/mL
Cell count of MRSA, 24 hours [4]: 1.7 × 10^5 CFU/mL
